{
  "source": "patent US20260232763A1",
  "about": "(Kadmon Corporation, LLC, priority 2023, published 2026)",
  "key": {"[1]": {"conditions": "healthy subjects, cited from earlier work"}, "[2]": {"biological_target": "CYP3A4 (Homo sapiens, UniProt P08684)", "sequence (P08684 whole entry)": "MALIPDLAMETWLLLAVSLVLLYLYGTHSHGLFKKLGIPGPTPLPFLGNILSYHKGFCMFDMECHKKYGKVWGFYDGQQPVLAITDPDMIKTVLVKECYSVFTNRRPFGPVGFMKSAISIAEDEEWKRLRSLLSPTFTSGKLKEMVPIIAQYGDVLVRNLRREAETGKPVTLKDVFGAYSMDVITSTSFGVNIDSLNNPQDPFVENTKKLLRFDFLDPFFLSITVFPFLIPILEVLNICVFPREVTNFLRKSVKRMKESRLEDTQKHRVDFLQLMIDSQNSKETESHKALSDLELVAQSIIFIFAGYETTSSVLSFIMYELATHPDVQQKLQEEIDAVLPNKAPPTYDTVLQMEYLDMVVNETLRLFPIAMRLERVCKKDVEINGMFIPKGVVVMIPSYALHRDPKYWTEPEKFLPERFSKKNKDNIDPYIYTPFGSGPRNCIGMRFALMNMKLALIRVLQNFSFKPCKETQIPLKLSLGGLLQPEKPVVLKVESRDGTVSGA", "conditions": "in vitro; cited from earlier work"}, "[3]": {"tested_on": "rats", "conditions": "cited from earlier work"}, "[4]": {"biological_target": "CYP2D6 (Homo sapiens, UniProt P10635)", "sequence (P10635 whole entry)": "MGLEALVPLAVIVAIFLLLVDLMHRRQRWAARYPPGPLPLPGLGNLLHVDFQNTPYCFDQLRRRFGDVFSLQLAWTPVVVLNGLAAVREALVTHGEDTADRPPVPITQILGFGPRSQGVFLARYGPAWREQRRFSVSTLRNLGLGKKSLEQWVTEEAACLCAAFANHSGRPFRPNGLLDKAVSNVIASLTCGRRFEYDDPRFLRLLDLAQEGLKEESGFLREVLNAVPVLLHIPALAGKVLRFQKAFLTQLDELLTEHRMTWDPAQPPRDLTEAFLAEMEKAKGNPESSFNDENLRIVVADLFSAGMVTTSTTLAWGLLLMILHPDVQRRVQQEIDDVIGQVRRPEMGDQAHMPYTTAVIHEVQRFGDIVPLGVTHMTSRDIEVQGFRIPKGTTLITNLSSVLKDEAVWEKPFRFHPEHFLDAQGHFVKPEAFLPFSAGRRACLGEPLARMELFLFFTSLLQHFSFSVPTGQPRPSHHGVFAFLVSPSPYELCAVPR", "conditions": "in vitro; cited from earlier work"}, "[5]": {"biological_target": "T1, UGT1A9 (Homo sapiens, UniProt O60656)", "T1 sequence (O60656 26-530)": "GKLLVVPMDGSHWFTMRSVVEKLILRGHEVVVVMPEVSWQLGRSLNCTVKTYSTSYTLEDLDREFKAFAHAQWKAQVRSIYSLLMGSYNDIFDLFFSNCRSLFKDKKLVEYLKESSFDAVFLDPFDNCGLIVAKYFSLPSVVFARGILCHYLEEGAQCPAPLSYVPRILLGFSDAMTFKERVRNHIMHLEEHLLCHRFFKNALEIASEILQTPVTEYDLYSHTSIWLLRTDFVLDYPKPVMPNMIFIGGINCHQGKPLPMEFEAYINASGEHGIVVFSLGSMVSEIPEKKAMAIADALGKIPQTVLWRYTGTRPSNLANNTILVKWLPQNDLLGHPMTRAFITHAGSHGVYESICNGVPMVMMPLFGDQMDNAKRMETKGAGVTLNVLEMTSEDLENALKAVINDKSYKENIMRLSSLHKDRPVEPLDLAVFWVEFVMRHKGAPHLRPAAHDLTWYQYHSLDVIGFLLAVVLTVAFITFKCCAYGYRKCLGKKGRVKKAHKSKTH", "conditions": "in vitro; cited from earlier work"}, "[6]": {"conditions": "healthy subjects, cited from earlier work", "remark": "listed apart in the source"}, "[7]": {"biological_target": "T2, OATP1B1 (Homo sapiens, UniProt Q9Y6L6)", "T2 sequence (Q9Y6L6 1-691)": "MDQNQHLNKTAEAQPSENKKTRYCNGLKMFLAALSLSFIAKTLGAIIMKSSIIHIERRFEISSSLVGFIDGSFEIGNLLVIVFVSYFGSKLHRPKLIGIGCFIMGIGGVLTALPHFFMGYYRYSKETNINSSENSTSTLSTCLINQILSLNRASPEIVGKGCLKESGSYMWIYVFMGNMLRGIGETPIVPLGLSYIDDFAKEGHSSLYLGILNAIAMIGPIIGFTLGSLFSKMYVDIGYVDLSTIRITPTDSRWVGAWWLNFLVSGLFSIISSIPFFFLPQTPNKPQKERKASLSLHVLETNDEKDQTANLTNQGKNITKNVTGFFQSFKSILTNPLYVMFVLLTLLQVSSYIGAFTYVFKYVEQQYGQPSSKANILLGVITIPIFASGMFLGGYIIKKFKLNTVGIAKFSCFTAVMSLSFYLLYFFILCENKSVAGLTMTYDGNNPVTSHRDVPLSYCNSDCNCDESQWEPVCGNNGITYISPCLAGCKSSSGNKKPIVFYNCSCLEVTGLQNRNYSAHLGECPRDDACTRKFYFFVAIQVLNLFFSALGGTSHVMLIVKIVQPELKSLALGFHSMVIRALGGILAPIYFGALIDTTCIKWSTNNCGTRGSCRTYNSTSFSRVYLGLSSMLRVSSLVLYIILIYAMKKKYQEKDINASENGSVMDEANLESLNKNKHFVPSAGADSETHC", "conditions": "in vitro, at clinically relevant concentrations; cited from earlier work"}, "[8]": {"biological_target": "T3, BCRP (Homo sapiens, UniProt Q9UNQ0)", "T3 sequence (Q9UNQ0 1-655)": "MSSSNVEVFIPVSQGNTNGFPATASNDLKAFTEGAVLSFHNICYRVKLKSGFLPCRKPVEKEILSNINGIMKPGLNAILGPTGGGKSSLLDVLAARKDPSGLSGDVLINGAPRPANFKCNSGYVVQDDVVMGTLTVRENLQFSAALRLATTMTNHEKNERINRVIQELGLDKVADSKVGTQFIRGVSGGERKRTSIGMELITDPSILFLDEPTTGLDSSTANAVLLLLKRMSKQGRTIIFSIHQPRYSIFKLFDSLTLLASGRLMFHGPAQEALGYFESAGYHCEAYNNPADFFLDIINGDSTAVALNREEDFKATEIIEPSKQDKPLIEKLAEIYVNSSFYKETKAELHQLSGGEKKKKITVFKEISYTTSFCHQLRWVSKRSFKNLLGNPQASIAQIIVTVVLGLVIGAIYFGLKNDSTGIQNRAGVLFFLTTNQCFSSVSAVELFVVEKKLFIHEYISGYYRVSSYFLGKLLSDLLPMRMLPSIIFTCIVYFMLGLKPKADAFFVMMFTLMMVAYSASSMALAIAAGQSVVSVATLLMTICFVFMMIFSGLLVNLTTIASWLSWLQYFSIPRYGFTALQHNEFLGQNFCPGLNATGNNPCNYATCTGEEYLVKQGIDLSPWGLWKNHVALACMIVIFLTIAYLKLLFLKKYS", "conditions": "in vitro, at clinically relevant concentrations; cited from earlier work"}, "[9]": {"assay": "solubility", "type": "physicochemical", "conditions": "in vitro assessments"}, "[10]": {"conditions": "coadministration of rabeprazole"}, "[11]": {"conditions": "single oral dose of radiolabeled belumosudil"}},
  "note": "Where two headings read alike, the source gives them in different places.",
  "data": [
    {"smiles": "CC(C)NC(=O)COc1cccc(-c2nc(Nc3ccc4[nH]ncc4c3)c3ccccc3n2)c1", "note": "[belumosudil, 2-{3-[4-(1H-indazol-5-ylamino)-2-quinazolinyl]phenoxy}-N-(propan-2-yl) acetamide]", "values": [
      {"measurement": "effect on belumosudil exposure", "setting": "[1]; coadministered with itraconazole", "result": "no clinically meaningful effect"},
      {"measurement": "decrease of AUC", "setting": "[1]; coadministration of omeprazole", "result": 47, "unit": "%"},
      {"measurement": "decrease of Cmax", "setting": "[1]; coadministration of omeprazole", "result": 68, "unit": "%"},
      {"measurement": "decrease of AUC", "setting": "[1]; [10]", "result": 80, "unit": "%"},
      {"measurement": "decrease of Cmax", "setting": "[1]; [10]", "result": 87, "unit": "%"},
      {"measurement": "decrease of AUC", "setting": "[1]; coadministration of rifampin", "result": 72, "unit": "%"},
      {"measurement": "decrease of Cmax", "setting": "[1]; coadministration of rifampin", "result": 59, "unit": "%"},
      {"measurement": "metabolism", "setting": "[2]", "result": "primarily metabolized by CYP3A4 and to a lesser extent by CYP2C8, CYP2D6, and UGT1A9"},
      {"measurement": "participants reporting a TEAE", "setting": "52 participants, Grade 1 (mild)", "result": 3.8, "unit": "%"},
      {"measurement": "number of TEAEs judged related to belumosudil", "setting": "headache", "result": 1, "unit": "event"},
      {"measurement": "safety and tolerability when coadministered with raltegravir, dabigatran etexilate, rosuvastatin calcium", "setting": "healthy male participants, 200 mg QD", "result": "safe and well tolerated"},
      {"measurement": "serious adverse events or TEAEs leading to withdrawal or death", "setting": "in vivo", "result": "No serious adverse events"},
      {"measurement": "dose with decreased follicular development in ovaries", "setting": "[3]", "result": 275, "unit": "mg/kg/day"},
      {"measurement": "CYP2D6 inhibition", "setting": "[4]", "result": "inhibitor"},
      {"measurement": "UGT1A9 inhibition", "setting": "[5]", "result": "inhibitor"},
      {"measurement": "AUC increase with high-fat and high-calorie meal compared to fasted state", "setting": "[6]; single dose", "result": 2, "unit": "times"},
      {"measurement": "Cmax increase with high-fat and high-calorie meal compared to fasted state", "setting": "[6]; single dose", "result": 2.2, "unit": "times"},
      {"measurement": "radioactivity recovered in feces", "setting": "[6]; [11]", "result": 85, "unit": "%"},
      {"measurement": "radioactivity recovered in feces as unchanged", "setting": "[6]; [11]", "result": 30, "unit": "%"},
      {"measurement": "radioactivity recovered in urine", "setting": "[6]; [11]", "result": "less than 5%"},
      {"measurement": "OATP1B1 inhibition", "setting": "[7]", "result": "inhibits"},
      {"measurement": "BCRP inhibition", "setting": "[8]", "result": "inhibits"},
      {"measurement": "solubility", "setting": "[9]", "result": "pH dependent"}
    ]}
  ]
}
